Data from patent US20240041833A1, “PHARMACEUTICAL COMBINATION PRODUCT COMPRISING A PROTOPARVOVIRUS AND AN ANTIVIRAL BENZIMIDAZOLE AND USES THEREOF FOR TREATING CANCER” (priority 2020, published 2024).

Assays:
[1] = test system: SNB-19 and U-373 glioma cells; conditions: drug 4-0.156 μM in combination with H-1PV MOI 1 pfu/cell, 72 h; compared to cells infected only with H-1PV
Procedure: The screening was performed with the Agilent BioCel automated workstation housed in an Ermaflux L2 biosafety cabinet (equipped with charcoal filters to trap gases). The glioma cell lines SNB-19 and U-373 were used for the screening. Cells were seeded with the BRAVO pipettor in 384 well cell culture microplate at 15% confluence in medium supplemented with 10% FBS and penicillin/streptomycin. After overnight incubation half of the plates was infected with wild-type H-1 PV at MOI of 1 plaque forming unit (pfu)/cell, the other half kept untreated. All cells were then treated with 5 concentrations of each of the 1,443 compounds (5-point dose curve incorporating a […] dilution step in duplicates, range 4-0.156 μM). […] PrestoBlue® is a cell viability indicator by using the reducing power of living cells to quantitatively measure the proliferation of cells. […] Conversion is proportional to the number of metabolically active cells and therefore can be measured quantitatively. Quantitation of fluorescent signal intensity of the cell culture supernatant was carried out using the HTS-ready Berthold MITHRAS LB 940 fluorescent plate reader at excitation and emission wavelengths of 569/586 nm (reduced resazurin form resorufin). […]

[2] = test system: different cancer cell lines of different origins; conditions: in vitro, in combination with H-1PV; cited from earlier work
[3] = test system: xenograft rat model of human pancreatic carcinoma; conditions: in vivo, in combination with H-1PV; cited from earlier work
[4] = test system: SNB-19, U-373 and AsPC-1 cell lines; assay: Optical microscopy analysis (IncuCyte ZOOM) of morphological/cytopathic effects; type: cell-based, human; conditions: 4 μM LDV and/or H-1PV MOI 1 (SNB-19) or 100 (U-373, AsPC-1); 4 days (96 h) post-treatment
Procedure: Two glioblastoma cell lines (SNB-19 and U-373) and a pancreatic cell line (AsPC-1) displaying different susceptibility to H-1 PV infection were treated (or not) with increasing amounts of H-1PV (MOI, pfu/cell) in the presence or absence of 4 μM LDV.
The cancer cell lines indicated in FIG. 3 were plated at the same density. After 24 h, cells were infected (or not) with H-1 PV used at the MOI (pfu/cell) of 1 (SNB-19), or 100 (U-373 and AsPC-1) in combination (or not) with 4 μM LDV. Light microscopy images were acquired using the IncuCyte ZOOM™ live cell imaging system (Essen BioScience, MI USA) at 96 h after treatment.

AsPC-1 cells = assay: Real-time detection of cell viability and proliferation (xCELLIgence); type: cell-based, human; conditions: LDV (1 and 4 μM) and/or H-1PV (up to MOI 100 pfu/cell), monitored for 150 hours
Procedure: (§1) Human cancer cells were seeded into a 96-well E-plate (ACEA Biosciences, San Diego, CA, USA) at a density of 4000 cells/well. After 24 h, cells were infected or not with H-1PV and grown in the presence or absence of LDV. Growth of mock treated cells and virus infected cells was monitored in real-time every 30 min, for 6 days using the xCELLIgence System (ACEA). Cell proliferation was expressed as normalized cell index (CI), a parameter directly proportional to the number of attached cells per well and, therefore, strictly correlated with cell proliferation and viability. The growth curves represent the averages of the results of at least three replicates
(§2) The xCELLIgence system allows the monitoring in real time of cell proliferation and viability. This system was used to confirm the anti-cancer effect of H-1PV/LDV co-treatment. Three cancer cell lines were used for these experiments, namely glioma cell lines […], and pancreatic carcinoma cell line AsPC-1. Cells were treated (or not) with H-1PV in the presence or absence of LDV. Cell proliferation was monitored every 30 min for a total of 150 hours.
(§3) Cancer cells were seeded in a 96-well E-plate. […] Cell proliferation was monitored in real-time using the xCELLIgence system. The values in FIG. 4 are expressed as normalized cell index and plotted against time. […]

SNB-19 cells = assay: as above; type: cell-based, human; conditions: LDV and/or H-1PV, monitored every 30 min for 150 hours
Procedure: as §1, §2, §3

[5] = test system: SNB-19 (glioma), AsPC-1 (pancreatic carcinoma), and PC3 (prostate cancer) cell lines; assay: LDH assay of treatment-induced cell lysis (Example 4); type: cell-based, human; conditions: H-1PV and/or increasing concentrations of LDV; 120 h (SNB19) or 96 h (AsPC1, PC3)
Procedure: (§4) In an lactate dehydrogenase assay (LDH assay) LDH released from a cell, e.g. due to cell lysis, oxidizes lactate to generate NADH, which then in turn reacts with a colorimetric substrate to generate a quantifiable colour change, which is directly correlated to the amount of LDH released and can, as such, used as a measure of cell lysis.
(§5) Cancer cell lines were seeded at a density of 3,000 (U-251, BxPC-3, Panc-1, DU-145, A-549, HOP-62 and Caki-1) or 4,000 (SNB-19, AsPC-1, PC3 and U-373) cells/well in 96-well plates in 50 μl of their respective culture medium supplemented with 10% heat inactivated FBS. After 24 h, 50 μl of FBS-free medium with or without H-1PV and/or Ledipasvir (LDV; Selleck Chemicals LLC, Houston, TX, USA) was added. Cells were incubated for 3-5 days and then subjected to […] LDH assay (CytoTox 96 non-radioactive cytotoxicity assay, Promega Madison, WI, USA), according to the manufacturer's instructions. For each condition tested, six replicates were prepared of which three were used for calculating the total lysis in the presence of detergent as previously described (25).
To further confirm the results shown in Examples 1-3, the oncolytic activity of H-1PV/LDV combination, was analysed by LDH assays. […]

U-373 glioma cells = assay: LDH assay of treatment-induced cell lysis (Example 5); type: cell-based, human; conditions: 4 μM LDV and/or increasing viral MOIs, 96 h
Procedure: as §4, §5
U-373 glioma cells treated (or not) with 4 μM LDV were infected (or not) with increasing viral MOIs (pfu/cell) and treatment-induced cell lysis was assessed by LDH assay.
U373 glioma cells, were grown for 24 h before being treated for 96 h as indicated. […]

[6] = test system: U-251, BxPC-3, Panc-1, Du-145, A-549, Hop-62 and Caki-1 cancer cell lines; assay: LDH assay of treatment-induced cell lysis (Example 6); type: cell-based, human; conditions: LDV, H-1PV or both, 96 h, seven cancer cell lines
Procedure: as §4, §5
H-1 PV can target and kill a broad spectrum of cancer cell lines from different tumour entities. […] Treatment-induced cell lysis was analysed by LDH assay. […]

CN(C)CC[C@H](CSc1ccccc1)Nc1ccc(S(=O)(=O)NC(=O)c2ccc(N3CCN(Cc4ccccc4-c4ccc(Cl)cc4)CC3)cc2)cc1[N+](=O)[O-] [ABT-737]
interaction with H-1PV: fold increase in H-1PV cytotoxicity (PrestoBlue) [1]: synergized with H-1PV | enhancement of H-1PV oncotoxicity [2]: enhance H-1PV oncotoxicity in a synergistic manner | enhancement of H-1PV oncotoxicity [3]: enhance H-1PV oncotoxicity in a synergistic manner

Oc1ccc(O)cc1 [Hydroquinone]
interaction with H-1PV: fold increase in H-1PV cytotoxicity (PrestoBlue) [1]: did not interact with H-1 PV

COC(=O)N[C@H](C(=O)N1CC2(CC2)C[C@H]1c1ncc(-c2ccc3c(c2)C(F)(F)c2cc(-c4ccc5nc([C@@H]6[C@H]7CC[C@H](C7)N6C(=O)[C@@H](NC(=O)OC)C(C)C)[nH]c5c4)ccc2-3)[nH]1)C(C)C [LDV, methyl N-[(2S)-1-[(6S)-6-[5-[9,9-difluoro-7-[2-[(1R,3S,4S)-2-[(2S)-2-(methoxycarbonylamino)-3-methylbutanoyl]-2-azabicyclo[2.2.1]heptan-3-yl]-3H-benzimidazol-5-yl]fluoren-2-yl]-1H-imidazol-2-yl]-5-azaspiro[2.4]heptan-5-yl]-3-methyl-1-oxobutan-2-yl]carbamate]
cytotoxic / cytopathic effects and morphological changes [4]: did not induce any evident cytotoxic effects | cell proliferation and viability (normalized cell index) (AsPC-1 cells): did not affect cell proliferation | cell proliferation and viability (normalized cell index) (SNB-19 cells): did not affect cell proliferation | treatment-induced cell lysis (LDH) [5]: did not induce cell lysis | treatment-induced cell lysis (LDH) (U-373 glioma cells): did not induce cell lysis | treatment-induced cell lysis (LDH) [6]: did not induced cell lysis
